Molecules are shown by their SMILES. Structures can show the parent of a compound that is named as a salt.

The target of this assay is T1, rat squalene epoxidase (Rattus norvegicus, UniProt P52020).
T1 construct: Livers were extracted and homogenized; from tissue; host or cells: liver of SD-strain female rats; microsomes solubilized with 2 % Triton X-100, 105000 x g supernatant
T1 sequence (P52020 whole entry): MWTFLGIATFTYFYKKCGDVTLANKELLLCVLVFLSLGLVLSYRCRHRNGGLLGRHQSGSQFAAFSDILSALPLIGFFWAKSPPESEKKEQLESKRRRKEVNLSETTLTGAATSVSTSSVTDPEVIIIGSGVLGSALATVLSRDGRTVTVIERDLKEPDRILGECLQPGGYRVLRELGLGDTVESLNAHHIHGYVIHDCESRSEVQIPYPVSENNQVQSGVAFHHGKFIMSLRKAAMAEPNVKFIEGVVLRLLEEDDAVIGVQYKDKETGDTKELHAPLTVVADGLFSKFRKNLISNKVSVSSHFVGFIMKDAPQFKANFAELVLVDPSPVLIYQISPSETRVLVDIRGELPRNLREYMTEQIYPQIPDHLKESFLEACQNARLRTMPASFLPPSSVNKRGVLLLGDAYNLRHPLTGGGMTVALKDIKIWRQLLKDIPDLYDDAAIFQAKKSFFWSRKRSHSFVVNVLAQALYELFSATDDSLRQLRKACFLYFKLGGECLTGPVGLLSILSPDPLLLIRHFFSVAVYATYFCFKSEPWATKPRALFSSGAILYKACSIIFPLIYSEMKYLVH
Briefly: Squalene epoxidase inhibiting activity (3H-squalene to squalene-2,3-epoxide, solubilized liver microsome fraction). In kind it is biochemical. The settings on record: 8 µM 3H-squalene, 37 °C, 30 minutes, read-out: 50 % inhibitory concentration (IC50). The procedure:
The rat squalene epoxidase was prepared by the method described in J. Biol. Chem., vol.
SD-strain female rats were killed by exsanguination. Livers were extracted and homogenized with in the presence of 2 volumes of 0.1M Tris-HCl buffer (pH 7.5). The homogenate was centrifuged at 9750 Xg for 10 minutes. The supernatant fraction was further centrifuged at 105000 Xg for 1 hour. The sediment was washed with 0.1M Tris-HCl buffer (pH 7.5), and then centrifuged at 105000 Xg for 1 hour. The microsomes obtained were suspended in 0.1M Tris-HCl buffer (pH 7.5) so that the amount of proteins was 40 mg/ml, and under ice cooling, the suspension was stirred in the presence of 2 % Triton X-100 to solubilize the enzyme. After the solubilization, the solution was diluted to a Triton X-100 concentration of 0.5 % with 1 mM EDTA and 1 mM dithiothreitol, and centrifuged at 105000 Xg for 1 hour. The resulting supernatant fraction was used in the following test as a squalene epoxidase fraction.
The squalene epoxidase activity was assayed in accordance with the method described in J. Biol. Chem., vol.
Three microliters of a dimethyl sulfoxide solution of a test drug was added to a solution composed of 0.2 ml of the squalene epoxidase fraction prepared in (1) [proteins 0.4 mg, 0.5 % Triton X-100, […] Tris-HCl buffer (pH 7.5)], 100 µM FAD, 1 mM NADPH, 1 mM EDTA and 8 µM ³H-squalene-Tween 80 emulsion to adjust the total amount of the solution to 0.3 ml. The solution was incubated at 37 °C for 30 minutes with shaking. Then, 0.3 ml of a 10 % methanolic potassium hydroxide was added to stop the reaction, and the reaction mixture was left to stand at room temperature for 1 hour. The non-saponified material was extracted with petroleum ether, and the solvent was evaporated under a nitrogen stream. […] The position of the resulting ³H-squalene-2,3-epoxide on TLC was determined using ergosterol acetate as a marker, and the ³H-squalene-2,3-epoxide portion on the TLC was cut off. The TLC strip was immersed in a toluene-type scintillator, and measured by a liquid scintillation counter.
In general terms: Liver microsomes are a subcellular fraction often used to study metabolism.
For the compound `CN(C/C=C/C#CC(C)(C)C)Cc1cccc(OCc2cccc(C(F)(F)F)c2)c1` [Compound 57, (E)-N-(6,6-dimethyl-2-hepten-4-ynyl)-N-methyl-3-(3-trifluoromethylbenzyloxy)benzylamine hydrochloride], the IC50 worked out at 3.1 µM.

As for `COc1ccc(COc2cccc(CN(C)C/C=C/C#CC(C)(C)C)c2)cc1` [Compound 12, (E)-N-(6,6-dimethyl-2-hepten-4-ynyl)-N-methyl-3-(4-methoxybenzyloxy)benzylamine], the IC50 was determined as 6 µM.

Turning to `CN(C/C=C/C#CC(C)(C)C)Cc1cccc(OCc2cccc(-c3nccs3)c2)c1` [Compound 77, (E)-N-(6,6-dimethyl-2-hepten-4-ynyl)-N-methyl-3-[3-(2-thiazolyl)benzyloxy]benzylamine], the IC50 turned out to be 1.2 µM.

Take `CCCN(C/C=C/C#CC(C)(C)C)Cc1cccc(OCc2cccc(-n3cccc3)c2)c1` [Compound 122, (E)-N-(6,6-dimethyl-2-hepten-4-ynyl)-N-propyl-3-[3-(1-pyrrolyl)benzyloxy]benzylamine]: the IC50 is 0.013 µM. As for `CN(C/C=C\C#CC(C)(C)C)Cc1cccc(OCc2cccc3ccccc23)c1` [Compound 19, (Z)-N-(6,6-dimethyl-2-hepten-4-ynyl)-N-methyl-3-(1-naphthylmethyloxy)benzylamine], the IC50 is 3.1 µM.

For the compound `CN(C/C=C/C#CC(C)(C)C)Cc1cccc(/C=C/c2cccc3ccccc23)c1` [Compound 100, N-[(E)-6,6-dimethyl-2-hepten-4-ynyl]-N-methyl-3-[(E)-2-(1-naphthylvinyl)]benzylamine], the IC50 stood at 0.12 µM. As to `COc1ccccc1COc1cccc(CN(C)C/C=C/C#CC(C)(C)C)c1` [Compound 51, (E)-N-(6,6-dimethyl-2-hepten-4-ynyl)-N-methyl-3-(2-methoxybenzyloxy)benzylamine hydrochloride], the IC50 stood at 1.1 µM. For `C/C=C(\C)COc1cccc(CN(C)C/C=C/C#CC(C)(C)C)c1` [Compound 90, N-[(E)-6,6-dimethyl-2-hepten-4-ynyl]-N-methyl-3-[(E)-2-methyl-2-butenyloxy]benzylamine hydrochloride], the IC50 amounted to 5.5 µM. As to `Cc1ccoc1COc1cccc(CN(C)C/C=C/C#CC(C)(C)C)c1` [Compound 82, (E)-N-(6,6-dimethyl-2-hepten-4-ynyl)-N-methyl-[(3-methyl-2-furyl)methyloxy]benzylamine], the IC50 is 0.87 µM. As for `CN(C/C=C/C#CC(C)(C)C)Cc1cccc(OCCCc2ccccc2)c1` [Compound 58, (E)-N-(6,6-dimethyl-2-hepten-4-ynyl)-N-methyl-3-(3-phenylpropoxy)benzylamine hydrochloride], the figure is 7.9 µM. In the case of `CCCN(C/C=C/C#CC(C)(C)C)Cc1cccc(OCc2cccc(-c3cnco3)c2)c1` [Compound 123, (E)-N-(6,6-dimethyl-2-hepten-4-ynyl)-N-propyl-3-[3-(5-oxazolyl)benzyloxy]benzylamine], the IC50 was found to be 0.034 µM. Turning to `CN(C/C=C/C#CC(C)(C)C)Cc1ccc(F)c(OCc2ccccc2)c1` [Compound 49, (E)-N-(6,6-dimethyl-2-hepten-4-ynyl)-N-methyl-3-benzyloxy-4-fluorobenzylamine], the IC50 is 4.9 µM. As for `CN(C/C=C/C#CC(C)(C)C)Cc1cccc(OCc2cccc(C=O)c2)c1` [Compound 95, (E)-N-(6,6-dimethyl-2-hepten-4-ynyl)-N-methyl-3-(3-formylbenzyloxy)benzylamine], the figure is 6.8 µM; as for `CN(C/C=C/C#CC(C)(C)C)Cc1cccc(OCc2ccccc2C#N)c1` [Compound 67, (E)-N-(6,6-dimethyl-2-hepten-4-ynyl)-N-methyl-3-(2-cyanobenzyloxy)benzylamine hydrochloride], 2.4 µM. With `CC(C)(C)C#C/C=C/CNCc1cccc(OCc2ccccc2)c1` [Compound 1, (E)-N-(6,6-dimethyl-2-hepten-4-ynyl)-3-benzyloxybenzylamine], the IC50 worked out at 6.8 µM. Regarding `CC(C)=C(C)COc1cccc(CN(C)C/C=C/C#CC(C)(C)C)c1` [Compound 92, (E)-N-(6,6-dimethyl-2-hepten-4-ynyl)-N-methyl-3-(2,3-dimethyl-2-butenyloxy)benzylamine], the IC50 amounted to 3.3 µM. Consider `C=CCN(C/C=C/C#CC(C)(C)C)Cc1cccc(OCc2ccccc2)c1` [Compound 41, (E)-N-allyl-N-(6,6-dimethyl-2-hepten-4-ynyl)-3-benzyloxybenzylamine], for which the IC50 was 2.1 µM.

As for `CN(C/C=C/C#CC(C)(C)C)Cc1cccc(OCc2ccco2)c1` [Compound 34, (E)-N-(6,6-dimethyl-2-hepten-4-ynyl)-N-methyl-3-furfuryloxybenzylamine], the IC50 was determined as 1.7 µM.

In the case of `CN(C/C=C/C#CC(C)(C)C)Cc1csc(/C=C/c2ccccc2)n1` [Compound 117, N-[(E)-6,6-dimethyl-2-hepten-4-ynyl]-N-methyl-2-[(E)-styryl]-4-thiazolylmethylamine], the IC50 came out at 0.52 µM. Take `CN(C/C=C/C#CC(C)(C)C)Cc1cccc(/C=C/c2ccccn2)c1` [Compound 108, (E)-N-(6,6-dimethyl-2-hepten-4-ynyl)-N-methyl-3-[(E)-2-(2-pyridyl)vinyl]benzylamine]: the IC50 worked out at 0.45 µM.

Consider `CCc1ccccc1COc1cccc(CN(C)C/C=C/C#CC(C)(C)C)c1` [Compound 62, (E)-N-(6,6-dimethyl-2-hepten-4-ynyl)-N-methyl-3-(2-ethylbenzyloxy)benzylamine hydrochloride], for which the IC50 amounted to 0.36 µM. As for `CN(C/C=C/C#CC(C)(C)C)Cc1cccc(OCc2cccc(-n3cccc3)c2)c1` [Compound 81, (E)-N-(6,6-dimethyl-2-hepten-4-ynyl)-N-methyl-3-[3-(1-pyrrolyl)benzyloxy]benzylamine], the figure is 0.014 µM; as for `CN(C/C=C/C#CC(C)(C)C)Cc1cccc(OCc2cccc(O)c2)c1` [Compound 65, (E)-N-(6,6-dimethyl-2-hepten-4-ynyl)-N-methyl-3-(3-hydroxybenzyloxy)benzylamine], 4.6 µM.

`C=C(C)c1cccc(COc2cccc(CN(C)C/C=C/C#CC(C)(C)C)c2)c1` [Compound 69, (E)-N-(6,6-dimethyl-2-hepten-4-ynyl)-N-methyl-3-(3-isopropenylbenzyloxy)benzylamine]: the IC50 was determined as 0.51 µM. Take `CCN(C/C=C/C#CC(C)(C)C)Cc1cccc(OCc2cccc(-c3cnco3)c2)c1` [Compound 120, (E)-N-(6,6-dimethyl-2-hepten-4-ynyl)-N-ethyl-3-[3-(5-oxazolyl)benzyloxy]benzylamine]: the IC50 came out at 0.0027 µM. Consider `CN(C/C=C/C#CC(C)(C)C)Cc1cccc(OCc2cccs2)c1` [Compound 86, (E)-N-(6,6-dimethyl-2-hepten-4-ynyl)-N-methyl-3-(2-thienylmethyloxy)benzylamine], for which the IC50 amounted to 3.3 µM. As for `Cc1ccccc1COc1cccc(CN(C)C/C=C/C#CC2(C)CC2)c1` [Compound 131, (E)-N-methyl-N-[5-(1-methylcyclopropyl)-2-penten-4-ynyl]-3-(2-methylbenzyloxy)benzylamine], the figure is 1 µM; as for `COC(C)(C)C#C/C=C/CN(C)Cc1cccc(OCc2ccccc2)c1` [Compound 126, (E)-N-(6-methoxy-6-methyl-2-hepten-4-ynyl)-N-methyl-3-benzyloxybenzylamine], 2.2 µM; as for `Cc1ccccc1COc1ccnc(CN(C)C/C=C/C#CC(C)(C)C)c1` [Compound 112, (E)-N-(6,6-dimethyl-2-hepten-4-ynyl)-N-methyl-4-(2-methylbenzyloxy)-2-pyridylmethylamine], 0.69 µM. `CN(C/C=C/C#CC(C)(C)C)Cc1ccc(O)c(OCc2ccccc2)c1` [Compound 50, (E)-N-(6,6-dimethyl-2-hepten-4-ynyl)-N-methyl-3-benzyloxy-4-hydroxybenzylamine hydrochloride]: the IC50 was 2.1 µM. For `CCN(C/C=C/C#CC(C)(C)C)Cc1cccc(OCc2cccc(-n3cccc3)c2)c1` [Compound 119, (E)-N-(6,6-dimethyl-2-hepten-4-ynyl)-N-ethyl-3-[3-(1-pyrrolyl)benzyloxy]benzylamine] the value was 0.0071 µM. `CCN(C/C=C/C#CC(C)(C)C)Cc1cccc(OCc2cccc(-c3cncs3)c2)c1` [Compound 121, (E)-N-(6,6-dimethyl-2-hepten-4-ynyl)-N-ethyl-3-[3-(5-thiazolyl)benzyloxy]benzylamine]: the IC50 came out at 0.026 µM.

Consider `CC(C)=CCc1cccc(COc2cccc(CN(C)C/C=C/C#CC(C)(C)C)c2)c1` [Compound 72, (E)-N-(6,6-dimethyl-2-hepten-4-ynyl)-N-methyl-3-[3-(3-methyl-2-butenyl)benzyloxy]benzylamine], for which the IC50 came out at 9.7 µM.

These data come from patent EP0318860B1, “Substituted alkylamine derivatives” (BANYU PHARMACEUTICAL CO., LTD., priority 1987, dated 1989).
